Experimental data taken from patent US20240018119A1, “CARBOXAMIDE DERIVATIVE AND PHARMACEUTICAL COMPOSITION COMPRISING SAME AS ACTIVE INGREDIENT FOR PREVENTING OR TREATING MENTAL ILLNESS” (DAEGU-GYEONGBUK MEDICAL INNOVATION FOUNDATION, priority 2020, published 2024).

Experiments:
Format in all cases: cell-based
serotonin transporter = target: T1, serotonin transporter (Homo sapiens, UniProt P31645); test: Serotonin reuptake inhibition in transporter-transfected HEK-293 cells ([3H]-5-HT); conditions: for Triple reuptake inhibition (Ratio %) SERT: compound 1 μM, [3H]-5-HT, relative to control without compound (100%), lower = more inhibition; for IC50: concentration at which Ratio % is 50%, 6 concentrations 1 nM to 1 μM, read-out: Triple reuptake inhibition (IC50, μM) SERT
T1 construct: expressed in transfected cells; host or cells: HEK-293
T1 sequence (P31645 whole entry): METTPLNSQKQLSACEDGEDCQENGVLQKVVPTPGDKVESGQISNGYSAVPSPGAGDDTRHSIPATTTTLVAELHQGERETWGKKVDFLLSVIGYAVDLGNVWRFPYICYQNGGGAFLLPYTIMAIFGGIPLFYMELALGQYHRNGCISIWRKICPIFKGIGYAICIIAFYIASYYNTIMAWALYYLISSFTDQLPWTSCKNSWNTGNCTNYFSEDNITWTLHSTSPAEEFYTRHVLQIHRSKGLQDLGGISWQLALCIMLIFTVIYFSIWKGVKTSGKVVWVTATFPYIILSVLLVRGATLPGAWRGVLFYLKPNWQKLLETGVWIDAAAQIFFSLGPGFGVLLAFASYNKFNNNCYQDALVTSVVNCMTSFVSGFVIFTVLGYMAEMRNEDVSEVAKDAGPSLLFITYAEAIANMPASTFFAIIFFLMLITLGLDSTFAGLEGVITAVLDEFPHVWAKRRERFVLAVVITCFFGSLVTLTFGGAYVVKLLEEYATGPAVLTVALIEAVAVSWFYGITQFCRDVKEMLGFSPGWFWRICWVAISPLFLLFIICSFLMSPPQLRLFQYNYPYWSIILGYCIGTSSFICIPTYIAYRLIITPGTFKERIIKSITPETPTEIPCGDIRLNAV
Protocol: (§1) To evaluate the reuptake inhibitory effect on dopamine, the dopamine transporter cDNA was transfected using the HEK-293 cell line, and then sub-seeded in a 24 well plate the next day. After removing the medium, each compound of the Examples or Comparative Examples diluted to 1 μM in uptake buffer was added to a concentration of 200 μl/well and cultured at 37° C. for 15 minutes. 100 μl of uptake buffer containing 20-30 nM [3H]-DA was added and cultured at 37° C. for 5 minutes. The reaction solution was quickly removed and washed three times with 1 ml ice-cold uptake buffer. After dissolving the resultant in 1% SDS (0.5 ml), the degree of binding of radioisotope-labeled dopamine to the transporter was measured.
(§2) For norepinephrine (NE) and serotonin (5-HT), the degree of binding of radioisotope-labeled norepinephrine or serotonin to the transporter was measured in the same manner as above, except that cells transfected with NE or 5-HT transporter cDNA were used and [3H]-NE or [3H]-5-HT was used as a substrate.
(§3) In addition, when evaluating the reuptake inhibitory effect on dopamine, norepinephrine, and serotonin, the same method was performed without treating each compound of the Examples or Comparative Examples as a control, the degree of binding of radioisotope-labeled dopamine, norepinephrine, and serotonin to the transporter was measured, and by using this as a standard (100%), the triple reuptake inhibitory effect was evaluated as a relative ratio (Ratio %). That is, in the control group, the binding of dopamine, norepinephrine, and serotonin to transporters is not inhibited, but when each compound of the Examples is treated and thus the binding is inhibited, the Patio % value decreases.
In addition, in the case of the compound of Comparative Example 1, IC50 was obtained by the same method as the Example Compounds.

dopamine transporter = target: T2, dopamine transporter (Homo sapiens, UniProt Q01959); test: Dopamine reuptake inhibition in transporter-transfected HEK-293 cells ([3H]-DA); conditions: for Triple reuptake inhibition (Ratio %) DAT: compound 1 μM, 20-30 nM [3H]-DA, relative to control without compound (100%), lower = more inhibition; for IC50: concentration at which Ratio % is 50%, 6 concentrations 1 nM to 1 μM, read-out: Triple reuptake inhibition (IC50, μM) DAT
T2 construct: expressed in transfected cells; host or cells: HEK-293
T2 sequence (Q01959 whole entry): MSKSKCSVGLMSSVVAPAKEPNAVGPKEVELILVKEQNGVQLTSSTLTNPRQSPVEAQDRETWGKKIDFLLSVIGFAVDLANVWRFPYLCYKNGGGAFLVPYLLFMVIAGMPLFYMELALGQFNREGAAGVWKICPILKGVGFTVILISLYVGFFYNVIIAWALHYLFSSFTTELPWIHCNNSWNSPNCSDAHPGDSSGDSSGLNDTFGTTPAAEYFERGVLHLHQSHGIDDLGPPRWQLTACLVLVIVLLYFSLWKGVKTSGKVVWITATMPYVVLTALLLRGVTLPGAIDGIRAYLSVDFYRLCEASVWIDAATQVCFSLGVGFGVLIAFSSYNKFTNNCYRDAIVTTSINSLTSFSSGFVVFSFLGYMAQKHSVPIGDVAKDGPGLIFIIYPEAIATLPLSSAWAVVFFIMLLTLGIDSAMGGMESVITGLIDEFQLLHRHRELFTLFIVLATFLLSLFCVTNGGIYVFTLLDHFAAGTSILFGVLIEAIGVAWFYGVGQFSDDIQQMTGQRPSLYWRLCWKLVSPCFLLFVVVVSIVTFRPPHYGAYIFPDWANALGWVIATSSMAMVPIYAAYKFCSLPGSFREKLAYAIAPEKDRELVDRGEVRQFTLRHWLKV
Protocol: as §1, §3
(§4) Meanwhile, the Patio % values were compared, and in the case of the compounds of Examples 6, 9, 10, 19, 20, 22, 24, 28, 30, 31, 32, 33, 35, 41, 42, 48, 49, 51, 55, 56, 59, 61, 63, 64, 65, 66, 74 and 76 with excellent reuptake inhibitory effects on dopamine, norepinephrine and serotonin, the concentration at which the Ratio % is 50% was calculated using a total of 6 concentrations (1 nM, 5 nM, 10 nM, 50 nM, 100 nM, and 1 μM) and expressed as IC50. In addition, in the case of the compound of Comparative Example 1, IC50 was obtained by the same method as the Example Compounds.

[1] = target: T3, norepinephrine transporter (Homo sapiens, UniProt P23975); test: Norepinephrine reuptake inhibition in transporter-transfected HEK-293 cells ([3H]-NE); conditions: for Triple reuptake inhibition (Ratio %) NET: compound 1 μM, [3H]-NE, relative to control without compound (100%), lower = more inhibition; for IC50: concentration at which Ratio % is 50%, 6 concentrations 1 nM to 1 μM, read-out: Triple reuptake inhibition (IC50, μM) NET
T3 construct: expressed in transfected cells; host or cells: HEK-293
T3 sequence (P23975 whole entry, species assumed): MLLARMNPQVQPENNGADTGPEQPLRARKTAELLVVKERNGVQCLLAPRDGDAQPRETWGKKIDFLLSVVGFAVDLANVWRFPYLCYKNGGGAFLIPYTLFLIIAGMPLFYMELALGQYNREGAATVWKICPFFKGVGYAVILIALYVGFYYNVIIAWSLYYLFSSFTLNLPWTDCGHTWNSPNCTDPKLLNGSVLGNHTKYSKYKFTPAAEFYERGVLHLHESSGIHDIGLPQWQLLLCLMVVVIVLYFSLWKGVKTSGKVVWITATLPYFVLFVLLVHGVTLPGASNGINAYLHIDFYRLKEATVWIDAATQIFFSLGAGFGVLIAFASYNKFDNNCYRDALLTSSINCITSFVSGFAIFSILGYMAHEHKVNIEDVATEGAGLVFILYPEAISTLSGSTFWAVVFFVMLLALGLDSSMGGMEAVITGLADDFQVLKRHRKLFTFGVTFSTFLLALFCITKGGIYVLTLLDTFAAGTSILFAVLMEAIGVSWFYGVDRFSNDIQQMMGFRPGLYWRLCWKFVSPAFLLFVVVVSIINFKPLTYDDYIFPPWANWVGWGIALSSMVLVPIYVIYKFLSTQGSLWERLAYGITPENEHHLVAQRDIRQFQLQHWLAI
Protocol: as §1, §2, §3, §4

SMILES	Triple reuptake inhibition (Ratio %) SERT (serotonin transporter) [%]	Triple reuptake inhibition (Ratio %) DAT (dopamine transporter) [%]	Triple reuptake inhibition (Ratio %) NET [1] [%]	IC50 (dopamine transporter) [µM]	IC50 [1] [µM]	IC50 (serotonin transporter) [µM]
O=C(NCCN1CCC(Cc2ccccc2)CC1)c1cc2cc(C(F)(F)F)ccc2[nH]1 [Example 40, N-(2-(4-benzylpiperidin-1-yl)ethyl)-5-(trifluoromethyl)-1H-indol-2-carboxamide]	92.65	35.13	59.50	–	–	–
O=C(NCCN1CCC(Cc2ccccc2)CC1)c1cc2cc(Br)ccc2[nH]1 [Example 30, N-(2-(4-benzylpiperidin-1-yl)ethyl)-5-bromo-1H-indol-2-carboxamide]	75.29	49.44	94.09	0.984	7.91	–
O=C(NCCN1CCCC(Cc2ccccc2)C1)c1cc2ccccc2[nH]1 (stereo not drawn) [Example 38, N-(2-(3-benzylpiperidin-1-yl)ethyl)-1H-indol-2-carboxamide]	70.46	43.94	70.02	–	–	–
O=C(NCCN1CCN(Cc2ccccc2)CC1)c1cc2ccccc2[nH]1 [Example 25, N-(2-(4-benzylpiperazin-1-yl)ethyl)-1H-indol-2-carboxamide]	97.46	76.50	76.45	–	–	–
O=C(NC1CCC(Cc2ccccc2)CC1)c1cc2ccccc2[nH]1 (stereo not drawn) [Example 44, N-(4-benzylcyclohexyl)-1H-indol-2-carboxamide]	94.19	73.05	85.48	–	–	–
O=C(NCCN1CCC(c2ccc(Cl)c(Cl)c2)CC1)c1cc2ccccc2[nH]1 [Example 28, N-(2-(4-(3,4-dichlorophenyl)piperidin-1-yl)ethyl)-1H-indol-2-carb oxamide]	82.81	37.16	88.77	0.225	–	–
O=C(NCCN1CCN(Cc2ccc(F)c(F)c2)CC1)c1ccc2cc(Br)ccc2c1 [Example 7, 6-bromo-N-(2-(4-(3,4-difluorobenzyl)piperazin-1-yl)ethyl)-2-naphthamide]	103.19	82.42	60.83	–	–	–
O=C(NCCN1CCN(c2cccc(C(F)(F)F)c2)CC1)c1ccc(Cl)c(Cl)c1 [Example 12, 3,4-dichloro-N-(2-(4-(3-(trifluoromethyl)phenyl)piperazin-1-yl)ethyl)benzamide]	93.46	103.97	94.42	–	–	–
O=C(NCCN1CCC(Cc2ccccc2)CC1)c1cc2cc(F)c(F)cc2[nH]1 [Example 32, N-(2-(4-benzylpiperidin-1-yl)ethyl)-5,6-difluoro-1H-indol-2-carboxamide]	54.81	28.03	66.78	0.824	1.47	2.04
CC(C)(CN1CCC(Cc2ccccc2)CC1)NC(=O)c1cc2ccccc2[nH]1 [Example 34, N-(1-(4-benzylpiperidin-1-yl)-2-methylpropan-2-yl)-1H-indol-2-carboxamide]	90.64	55.54	70.66	–	–	–
O=C(NCCN1CCN(Cc2ccc(F)c(F)c2)CC1)c1ccc(Cl)c(Cl)c1 [Example 16, 3,4-dichloro-N-(2-(4-(3,4-difluorobenzyl)piperazin-1-yl)ethyl)benzamide]	113.34	85.54	82.44	–	–	–

The next lines start with the values.

Triple reuptake inhibition (Ratio %) SERT (serotonin transporter) [%]	Triple reuptake inhibition (Ratio %) DAT (dopamine transporter) [%]	Triple reuptake inhibition (Ratio %) NET [1] [%]	IC50 (dopamine transporter) [µM]	IC50 [1] [µM]	IC50 (serotonin transporter) [µM]	SMILES
108.82	86.48	69.01	–	–	–	O=C(NC1(CN2CCC(Cc3ccccc3)CC2)CC1)c1cc2ccccc2[nH]1 [Example 53, N-(1-((4-benzylpiperidin-1-yl)methyl)cyclopropyl)-1H-indol-2-carboxamide]
102.65	107.49	116.85	–	–	–	CC1(C(=O)NCCN2CCC(Cc3ccccc3)CC2)CC1 [Example 70, N-(2-(4-benzylpiperidine-1-yl)ethyl)-1-methylcyclopropanecarboxamide]
62.21	32.78	73.75	0.97	3.17	2.28	O=C(NCCN1CCC(Cc2ccccc2)CC1)c1nc2ccccc2[nH]1 [Example 61, N-(2-(4-benzylpiperidin-1-yl)ethyl)-1H-benzo[d]imidazol-2-carboxamide]
53.40	68.95	50.81	–	–	–	O=C(NCCN1CCC(Cc2ccccc2)CC1)c1nc2cc(F)ccc2s1 [Example 60, N-(2-(4-benzylpiperidin-1-yl)ethyl)-5-fluorobenzo(d)thiazol-2-carboxamide]
10.79	7.57	73.83	0.049	5.73	0.044	O=C(NCCN1CCC(Cc2ccc(Cl)c(Cl)c2)CC1)c1cc2cc(O)c(O)cc2[nH]1 [Example 65, N-(2-(4-(3,4-dichlorobenzyl)piperidin-1-yl)ethyl)-5,6-dihydroxy-1H-indol-2-carboxamide]
98.97	83.55	67.08	–	–	–	O=C(NCCN1CCC(Cc2ccccc2)CC1)c1ccc[nH]1 [Example 75, N-(2-(4-benzylpiperidin-1-yl)ethyl)-1H-pyrrol-2-carboxamide]
77.95	60.52	124.77	–	–	–	O=C(NCCN1CCC(Cc2ccccc2)CC1)C1Cc2ccccc2N1 (stereo not drawn) [Example 57, N-(2-(4-benzylpiperidin-1-yl)ethyl) indolin-2-carboxamide]
84.69	79.32	92.95	–	–	–	O=C(NCCNCc1ccc2ccccc2c1)c1cc2ccccc2[nH]1 [Example 54, N-(2-((naphthalen-2-ylmethyl)amino)ethyl)-1H-indol-2-carboxamide]
5.27	2.88	9.75	0.028	0.398	0.123	COc1cc2cc(C(=O)NCCN3CCC(Cc4ccc(Cl)c(Cl)c4)CC3)[nH]c2cc1OC [Example 48]
87.86	70.22	95.95	–	–	–	O=C(O)c1ccc2[nH]c(C(=O)NCCN3CCC(Cc4ccccc4)CC3)cc2c1 [Example 81, 2-((2-(4-benzylpiperidin-1-yl)-ethyl)carbamoyl)-1H-indol-5-carboxylic acid]
